In patent US10828275B2, “Selective targeting of procoagulant platelets” (NewSouth Innovations Pty Limited, priority 2014, dated 2020):
Residues, ends and D or L forms follow the SMILES beside them. *: point of attachment. Cbz = O=C(OCc1ccccc1)*; CH2F = FC*

Columns and labels:
washed human platelets [1] = assay: ABT-737 induced platelet apoptosis and pancaspase inhibition (flow cytometry); type: cell-based
Experimental: FIG. 4. Labeling with GSAO and exposure of P-selectin distinguishes necrotic from apoptotic platelets. […] The percentage of GSAO+ platelets are graphed with respect to P-selectin exposure. C. Washed human platelets were preincubated with 200 μM of ZVADFMK or vehicle control for 15 min then incubated with 30 μM of ABT-737 for 2 h (part F), or stimulated with thrombin (0.1 units/mL) and collagen (5 μg/mL) for 10 min (part G). Labeling with GSAO-AF647 and exposure of P-selection was measured by flow cytometry. D. Washed human platelets from healthy donors (n=5-11) were untreated or stimulated with thrombin (0.1 units/mL), collagen (5 μg/mL), or thrombin (0.1 units/mL) and collagen (5 μg/mL) for 10 min. […] The error bars are mean±SD.
Bcl-XL dependent apoptosis is involved in regulation of platelet life span, although the role of platelet apoptosis in thrombosis is controversial. In order to determine if GSAO can differentiate agonist-induced necrotic versus apoptotic platelets, platelet apoptosis was triggered using the BH3 mimetic ABT-737. GSAO labelled P-selectin negative apoptotic platelets (FIGS. 4A and B). The GSAO+ population also labeled with a polycaspase marker and annexin V, both indicators of apoptotic cells. […] Washed platelets from healthy donors were untreated or stimulated with thrombin, collagen or thrombin and collagen and examined for apoptosis (GSAO+/P-selectin−) and necrosis (GSAO+/P-selectin+) (FIG. 4D). These agonists trigger platelet necrosis but not apoptosis.

washed human platelets [2] = assay: Direct mitochondrial membrane depolarization and GSAO labelling; type: cell-based; details: CCCP 4 μM
Source text: FIG. 9. Mitochondrial membrane disruption is not sufficient for GSAO labeling.
The cyclophilin D-dependent regulated necrosis pathway is characterized by agonist stimulation, raised intracellular calcium, formation of the mitochondrial transition pore and loss of mitochondrial membrane potential. Dual agonist stimulation of platelets results in loss of mitochondrial transmembrane potential (FIG. 5A). The onset of mitochondrial depolarisation (FIG. 5B) and phosphatidylserine exposure (FIG. 5C) are coincident with GSAO labeling.
Mitochondrial membrane potential was measured using the JC-1 cationic dye (5,5′,6,6′-tetrachloro-1,1′,3,3′-tetraethyl-imidacarbocyanine iodide, Sigma) (Life Technologies). Washed platelets were incubated with JC-1 (2 μM) for 30 min in the dark at 37° C., washed once and analyzed immediately on a BDFACS Canto II. On some occasions, washed platelets were incubated with the mitochondrial membrane disrupter 2-[2-(3-chlorophenyl)hydrazinylyidene]propanedinitrile (CCCP, 4 μM) for 10 min.

[3] = tested on: P-selectin+ activated platelets; assay: DIDS effect on GSAO-AF647 labelling of agonist-stimulated platelets (flow cytometry); type: cell-based, human; details: thrombin (0.1 units/mL) and collagen (5 μg/mL); 0-200 μM DIDS for 10 min; read-out: half-maximal concentration for inhibition of GSAO labelling of P-selectin+ activated platelets
Experimental: (§1) FIG. 2. GSAO rapidly enters the activated platelet subpopulation via an organic anion-transporting polypeptide. A. The kinetics of labeling of stimulated platelets with GSAO-AF647 was measured by time lapse flow cytometry. Flow plots are representative of n≥3 separate experiments, and bars and data points are from n≥3 separate experiments. *p<0.05, ****p<0.0001. B-C. […] DIDS inhibited GSAO labelling of P-selectin+ activated platelets at a half-maximal concentration of ˜30 μM. The data points and errors are the mean±range of 1-5 experiments.
The organic anion-transporting polypeptide (OATP) family has been implicated in transport across the plasma membrane of organic anions in the same class as GSAO (Dilda et al., 2009; Dilda et al., 2008). Nine members of the OATP family have been reported in humans (Hagenbuch et al., 2003) and platelets express OATP2B1 (Niessen et al., 2009). DIDS is an inhibitor of OATP class B transporters (Kobayashi et al. 2003) and the present inventors tested its effect on GSAO labelling of agonist-stimulated platelets. DIDS inhibited GSAO labelling of P-selectin+ activated platelets (FIG. 2B) at a half-maximal concentration of ˜30 μM (FIG. 2C). GSAO is retained in the platelet cytoplasm through covalent reaction with closely-spaced protein cysteine thiols (Park et al., 2011) (data not shown).

washed human platelets [4] = assay: GSAO-AF647 labelling of thrombin and collagen stimulated platelets after preincubation; type: cell-based; details: CaCl2 preincubation 15 min
Experimental: FIG. 5. […] A. Washed human platelets were untreated or stimulated with thrombin (0.1 units/mL) and collagen (5 μg/mL) or the mitochondrial membrane disrupter CCCP (4 μM). Mitochondrial transmembrane potential was measured using the cationic dye, JC-1. The ratio of distribution of JC-1 between the mitochondria (red fluorescence) and cytosol (green fluorescence) reflects mitochondrial transmembrane potential. […] B-C. […] E. Washed human platelets were preincubated with CaCl2 for 15 min and then untreated or stimulated with thrombin (0.1 units/mL) and collagen (5 μg/mL).

stimulated platelets = assay: Kinetics of GSAO-AF647 labelling by time lapse flow cytometry; type: cell-based, human
Experimental: as §1
The rate of GSAO+ platelet generation after agonist exposure was measured using time lapse flow cytometry. Results are reported for GSAO+ events based on lead in time prior to agonist exposure threshold.

[5] = tested on: platelets in human whole blood; assay: Whole blood assay for procoagulant platelet potential, human blood; type: cell-based; details: for proportion of procoagulant platelets (GSAO+/P-selectin+): thrombin 2 U/mL, collagen 10 μg/mL, mean±SEM, 16-35 donors
Source text: FIG. 12. Gating strategy for detection of procoagulant platelets in human whole blood. A. Platelets were identified as CD41a positive and CD45 negative events. B. Threshold values for P-selectin and GSAO fluorescence were set using agonist stimulated sample stained with control IgG isotype and GSCA respectively. C. At rest, very few platelets show the procoagulant phenotype (P-selectin+/GSAO+).
FIG. 13. Assay for procoagulant platelet potential in human blood. […] The maximal response (17.3±1.3%) was observed after stimulation with combination of thrombin and collagen. Results are mean±SEM from 16-35 donors. One-way ANOVA, […], Holm-Sidak multiple comparisons correction. *, p<0.05; ****, p<0.0001.
(§2) Blood from healthy human volunteers was drawn from an antecubital fossa vein using a 21-gauge needle into evacuated sterile collection tubes containing 0.109 M sodium citrate. Following no or minimal tourniquet application, the initial 2 mL of blood was discarded to avoid pre-analytical activation of platelets. The tube was gently mixed by inversion six times. Murine blood samples were collected by cardiac puncture under isoflurane anesthesia. Following midline abdominal and bilateral subcostal surgical incisions to expose the heart, blood was drawn from the left ventricle through a 25G needle into a 1 mL syringe containing sodium citrate (0.109 M) resulting in a blood to citrate ratio of 9:1. The needle was removed and the blood was gently expelled from the syringe into a sterile microcentrifuge tube and mixed gently by pipetting up and down 5 times.
Following collection, tubes were kept upright at room temperature and blood was assayed within 15 min of collection. Incubation and staining steps were performed in a sterile 96-well polypropylene plate. […]
(§3) Fixed cells were analyzed by flow cytometry 1 to 3 h after fixation at an average event rate of 2000 events per sec in an LSRFortessa flow cytometer, equipped with either four (405 nm, 488 nm, 561 nm and 640 nm) or five (395 nm) lasers (BD Biosciences). […]

washed human platelets [6] = assay: GSAO-AF647 labelling and P-selectin exposure of washed platelets (flow cytometry); type: cell-based; details: thrombin 0.1 units/mL, collagen 5 μg/mL
Experimental: FIG. 1. GSAO labels a subpopulation of activated platelets. A. Structure of GSAO and site of conjugation of AF647, Oregon Green or biotin. B. Washed human platelets were stimulated with calcium ionophore (1 μM) and activation and plasma membrane compromise measured by flow cytometry. […] C. […] E. Washed human platelets were stimulated with collagen or collagen-related peptide and co-labeling with P-selectin and GSAO-AF647 measured by flow cytometry.
Calcium ionophore treatment of platelets leads to a sustained rise in intracellular calcium and surface elaboration of phosphatidylserine, which are features of both the procoagulant and necrotic phenotype (Bevers et al., 1982). Washed human platelets were treated with calcium ionophore and labeled with GSAO-AF647 and an antibody against the α-granule marker, P-selectin.
To determine whether GSAO labeling reflects this agonist profile, washed human platelets were stimulated with thrombin, collagen, or both thrombin and collagen. […] To determine if signalling through the collagen receptor, GPVI, was sufficient to generate the GSAO+ phenotype, the maximal proportion of GSAO+ platelets generated by collagen was compared with the GPVI specific activator, collagen related peptide.
The relationship between the activated and procoagulant phenotype of platelets remains controversial (Dale et al., 2002; Abaeva et al., 2013). Procoagulant platelets are characterised by presence of phosphatidylserine on the platelet surface, surface binding of plasma derived activated clotting factors, ability to generate thrombin and promotion of fibrin formation. Regardless of the agonist stimulus, 100% of GSAO+ platelets were positive for α-granule P-selectin, which implies that α-granule release is a prerequisite for GSAO labeling after agonist stimulation (FIG. 1). […] Of note, a subpopulation of GSAO− platelets also bound annexin V so platelet necrosis is not required for exposure of phosphatidylserine.

platelets in mouse blood = assay: Whole blood assay for procoagulant platelet potential, mouse blood; type: cell-based; details: thrombin 2 U/mL, CRP 500 ng/mL; n=3 C57Bl6 bloods
Experimental: FIG. 14. Assay for procoagulant platelet potential in mouse blood. […] Bars and errors are mean±SEM of n=3 C57B16 bloods. One-way ANOVA. **, p<0.01; ****, p<0.0001.
as §2
Following collection, tubes were kept upright at room temperature and blood was assayed within 15 min of collection. […]
as §3

Compound: CN(C)CC[C@H](CSc1ccccc1)Nc1ccc(S(=O)(=O)NC(=O)c2ccc(N3CCN(Cc4ccccc4-c4ccc(Cl)cc4)CC3)cc2)cc1[N+](=O)[O-] [ABT-737]
- platelet phenotype induced (washed human platelets [1]; ABT-737 for 2 h): induced GSAO+/P-selectin− platelets

Compound: N#CC(C#N)=NNc1cccc(Cl)c1 [CCCP, 2-[2-(3-chlorophenyl)hydrazinylyidene]propanedinitrile]
- GSAO labelling after direct mitochondrial membrane depolarization (washed human platelets [2]): does not result in GSAO labelling

Compound: O=S(=O)(O)c1cc(N=C=S)ccc1C=Cc1ccc(N=C=S)cc1S(=O)(=O)O [DIDS]
- IC50 [3]: ~30 µM

Compound: COC(=O)C[C@H](NC(=O)[C@H](C)NC(=O)[C@@H](NC(=O)OCc1ccccc1)C(C)C)C(=O)CF [ZVADFMK] (Cbz-Val-Ala-Asp(OMe)-CH2F)
- effect on ABT-737 induced GSAO+/P-selectin− platelets (washed human platelets [1]; 200 μM ZVADFMK 15 min, then 30 μM ABT-737 2 h): reduced
- effect on GSAO labeling of thrombin and collagen stimulated platelets (washed human platelets [1]; 200 μM ZVADFMK 15 min, then agonists 10 min): no effect

Compound: [Ca] [calcium]
- effect of added calcium on GSAO+ agonist stimulated platelets (washed human platelets [4]): promoted

Compound: collagen
- time course of GSAO labeling after agonist (stimulated platelets): gradual increase in GSAO labeling over 60 sec
- proportion of procoagulant platelets (GSAO+/P-selectin+) [5]: 1.2±0.2%
- GSAO+ platelets generated by agonist (washed human platelets [6]): moderate proportion

Compound: collagen related peptide
- GSAO+ platelets generated by agonist (washed human platelets [6]): majority of the collagen effect was recapitulated
- potency as inducer of murine procoagulant platelets (platelets in mouse blood): significantly less potent than thrombin but synergizes with thrombin

Compound: thrombin
- time course of GSAO labeling after agonist (stimulated platelets): little GSAO labeling compared with unstimulated platelets
- potency as inducer of procoagulant platelets in human blood [5]: most potent inducer
- proportion of procoagulant platelets (GSAO+/P-selectin+) [5]: 13.2±1.1%
- GSAO+ platelets generated by agonist (washed human platelets [6]): minimal GSAO+ platelets
- potency as inducer of murine procoagulant platelets (platelets in mouse blood): most potent inducer
